Drawing on patent US4626540A, “Substituted 1-amino-4-nitro-acridinones and methods of treating bacterial infections and leukemia with them” (Warner-Lambert Company, priority 1984, dated 1986), this text covers MIC, IC50 and response vs control in vivo for nine compounds.

Values after ≈ are worked out from the molar mass of the structure shown. Bounds are passed on as bounds.

The test system of one assay is Streptococcus pneumoniae. Briefly: In vitro antibacterial (ABMF) microdilution test, Streptococcus pneumoniae. Conditions: Mueller-Hinton broth, 37° C., 16-24 hours, read-out: ABMF minimal inhibitory conc, S. pneu. Format: cell-based. An excerpt:
(§1) Still another test protocol is the in vitro antibacterial (ABMF) test which is a recognized standard microdilution susceptibility procedure in Mueller-Hinton broth against Gram-positive and Gram-negative bacterial test organisms. The procedure is a modification of a state-of-the-art procedure reported in Manual of Clinical Microbiology, Lennette, E. H., ed., by Barry, A. L. and C. Thornsberry at pages 463-474 and by Gavan, T. L. and A. L. Barry at pages 459-462, American Society for Microbiology, Washington, 1980.
(§2) In the test, a given bacterial culture is used to inoculate individual test wells of microdilution trays containing growth medium and test compound, the latter in a microdilution series: 1000, 333, 111, 37, 12, 4, 1.4, and 0.46 micrograms per milliliter. […] For convenience, values are reported for Escherichia coli, Corynebacterium Sp. ATCC 21698, Branhamella catarrhalis, Streptococcus pneumoniae, and Bacillus cereus.

Assay [1] concerns L1210 murine leukemia cell lines. The experiment in a line: In vitro antitumor screening (PDC test), L1210 murine leukemia cell growth. Format: cell-based. The settings on record: Mus musculus, 72 h; L1210 cells, 37° C., three days; value is ID50 multiplied by 10^7. How it is done: Another test protocol is the in vitro antitumor screening (PDC test) of compounds of the present invention on L1210 murine leukemia cell lines. L1210 cells, a murine leukemia cell line, were grown in RPMI 1640 supplemented with 5% fetal bovine serum and gentamicin (50 μg/ml).
Drug dilutions were prepared in the apropriate solvent and 20 μl of each dilution were added to 24-well Linbro tissue culture plats, followed by the addition of M 2.0 ml of cell suspension containing 3×10^4 cells per ml. Solvent and medium controls were included in each test. After incubation at 37° C. for three days in 5% CO2, the contents of each well were removed and the cells counted in a ZBI Coulter counter. Percent growth was calculated relative to the controls and the levels of drug activity wre expressed as ID50 in moles per liter using probit paper.

The test system of a further assay is Branhamella catarrhalis. Briefly: In vitro antibacterial (ABMF) microdilution test, Branhamella catarrhalis. Format: cell-based. The settings on record: Moraxella catarrhalis; Mueller-Hinton broth, 37° C., 16-24 hours; read-out: ABMF minimal inhibitory conc, B. cat.
Description: as §1, §2

Assay [2] relates to Corynebacterium Sp. ATCC 21698. Briefly: In vitro antibacterial (ABMF) microdilution test, Corynebacterium Sp. Format: cell-based. The settings on record: ATCC21698, Mueller-Hinton broth, 37° C., 16-24 hours, read-out: ABMF minimal inhibitory conc, Coryn. Species.
Description: as §1, §2

For a further assay, the system named is Escherichia coli. Briefly: In vitro antibacterial (ABMF) microdilution test, Escherichia coli. Format: cell-based. Conditions: Mueller-Hinton broth, 37° C., 16-24 hours, read-out: ABMF minimal inhibitory conc, E. coli.
Description: as §1, §2

For another assay, the system named is HCT-8 cells. Briefly: In vitro proliferating human colon adenocarcinoma (HCA) cell screen, HCT-8 cells.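 Further: ID50 is the molar concentration giving 50% growth inhibition.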 The settings on record: 60-65 hours at 37° C., value is ID50 multiplied by 10^7. Format: cell-based. How it is done: One test protocol is the in vitro proliferating human colon adenocarcinoma (HCA) cell screen. In this test, HCT-8 cells (HCA cell line received from Yale University) are trypsinized using trypsin-EDTA. A single cell suspension is achieved by passing the cells through a 26-gauge needle with a 20-cc syringe. A cell suspension is prepared using RPMI 1640+10% FCS+50 μg/ml gentamicin sulfate with a cell concentration of approximately 5,000 cells/ml. The cell suspension is dispensed in Linbro 24-well plates; 1 ml/well. The plates are incubated for approximately 48 hours at 37° C. in a 5% CO2 atmosphere. At this time test compounds are added in the appropriate concentration. Ten μl of the appropriate dilution is added to each well for a titration test. The plates are reincubated an additional 60-65 hours at 37° C. in a 5% CO2 atmosphere. The cells are lysed using a mix of cationic surfactant, glacial acetic acid and sodium chloride. Two ml of the lysed cell suspension from each well is added to 8 ml of diluent. The number of nuclei is determined using a Coulter counter (ZBI model), and a percent growth for each drug concentration is calculated.

Another assay has as its system Bacillus cereus. The experiment in a line: In vitro antibacterial (ABMF) microdilution test, Bacillus cereus. Format: cell-based. The settings on record: Mueller-Hinton broth, 37° C., 16-24 hours, read-out: ABMF minimal inhibitory conc, B. cer.
Description: as §1, §2

Assay [3] relates to lymphocytic leukemia P388. The experiment in a line: In vivo lymphocytic leukemia P388 test. Set-up: species or system CD2 F1 mice. Conditions: Mus musculus, P388, ip, intraperitoneal, once daily for five days, survival time treated/control, read-out: P388 in vivo T/C × 100. The procedure: Another test protocol is the in vivo lymphocytic leukemia P388 test. the animals used are either male or female CD2 F1 mice, six or seven animals per test group. The tumor transplant is by intraperitoneal injection of dilute ascitic fluid containing cells of lymphocytic leukemia P388. The test compounds are administered intraperitoneally once daily for five consecutive days at various doses following tumor inoculation. The animals are weighed and survivors are recorded on a regular basis for 30 days. A compound is designated "toxic" if, at a given dose, all animals die prior to four days after the first injection of drug. A ratio of survival time for treated (T)/control (C) animals is calculated. A criterion for efficacy is a ratio T/C times 100 greater than or equal to 125. See Cancer Chemotherapy Reports, Part 3, 3, 1 (1972) for a comprehensive discussion of the protocol.

For `COc1ccc2[nH]c3c([N+](=O)[O-])ccc(NCCCN(C)C)c3c(=O)c2c1` [Example 22, 1-[[3-(Dimethylaminopropyl)amino]-7-methoxy-4-nitro-9(10H)-acridinone, methanesulfonate (1:1), hemihydrate], the MIC with Streptococcus pneumoniae was below 0.46 µg/mL; in the assay on Branhamella catarrhalis it was below 0.46 µg/mL; in assay [2], below 0.46 µg/mL; in the assay with Escherichia coli, 1.4 µg/mL; in the assay with Bacillus cereus, 4.1 µg/mL. Besides, the half-inhibitory concentration (IC50) in assay [1] worked out at 1200 nM; in the assay on HCT-8 cells, 260 nM. Further, the response vs control in vivo at 6.25 mg/kg in assay [3] is 138%. In addition, the response vs control in vivo at 12.5 mg/kg in assay [3] came out at 156%. In addition, in assay [3], the response vs control in vivo at 25 mg/kg amounted to 178%. For the same compound, the response vs control in vivo at 50 mg/kg in assay [3] was determined as 225%. Moreover, in assay [3], the response vs control in vivo at 100 mg/kg is 205%.

On to `CCOc1ccc2[nH]c3c([N+](=O)[O-])ccc(NCCN(CC)CC)c3c(=O)c2c1.CS(=O)(=O)O` [Example 4, 1-[[2-(Diethylamino)ethyl]amino]-7-ethoxy-4-nitro-9(10H)-acridinone, methanesulfonate (1:1)], for which the MIC in the assay on Streptococcus pneumoniae is above 1000 µg/mL; in the assay on Branhamella catarrhalis, 37 µg/mL; in assay [2], 4.1 µg/mL; in the assay with Escherichia coli it was above 1000 µg/mL; with Bacillus cereus, above 1000 µg/mL. The results for the IC50 (in assay [1]; in the assay on HCT-8 cells) were 680 nM and 400 nM, respectively. Moreover, in assay [3], the response vs control in vivo at 12.5 mg/kg turned out to be 129%. Also, the response vs control in vivo at 25 mg/kg in assay [3] is 149%. For the same compound, the response vs control in vivo at 50 mg/kg in assay [3] is 211%. The response vs control in vivo at 100 mg/kg in assay [3] was 273%.

On to `CN(C)CCCNc1ccc([N+](=O)[O-])c2[nH]c3ccc(O)cc3c(=O)c12` [Example 21], for which the MIC is 0.46 µg/mL (≈ 1.29 µM) in the assay with Streptococcus pneumoniae; below 0.46 µg/mL in the assay on Branhamella catarrhalis; 0.46 µg/mL (≈ 1.29 µM) in assay [2]; below 0.46 µg/mL in the assay with Escherichia coli; below 0.46 µg/mL in the assay on Bacillus cereus. The half-maximal inhibitory concentration (IC50) in assay [1] was 19 nM; in the assay with HCT-8 cells, 2.8 nM. In addition, the response vs control in vivo at 1.56 mg/kg in assay [3] (1.56 mg/kg) was 162%. Also, the response vs control in vivo at 3.12 mg/kg in assay [3] (3.12 mg/kg) was 187%. Besides, the response vs control in vivo at 6.25 mg/kg in assay [3] was found to be 234%.

`COc1ccc2[nH]c3c([N+](=O)[O-])ccc(NC(C)CN(C)C)c3c(=O)c2c1` (centres unmarked) [Example 12, 1-[[2-Dimethylamino)-1-methylethyl]amino]-7-methoxy-4-nitro-9(10H)-acridinone, methanesulfonate, 1.25 hydrate]: the MIC is below 0.46 µg/mL in the assay with Streptococcus pneumoniae; 4.1 µg/mL in the assay with Branhamella catarrhalis; 4.1 µg/mL in assay [2]; 1.4 µg/mL in the assay on Escherichia coli; 4.1 µg/mL with Bacillus cereus. Moreover, the IC50 is 880 nM in assay [1] and 450 nM with HCT-8 cells. Also, the response vs control in vivo at 25 mg/kg in assay [3] turned out to be 122%. Further, in assay [3], the response vs control in vivo at 50 mg/kg came to 144%. In addition, in assay [3], the response vs control in vivo at 100 mg/kg was 180%. In addition, the response vs control in vivo at 200 mg/kg in assay [3] turned out to be 245%.

As for `CCOc1ccc2[nH]c3c([N+](=O)[O-])ccc(NCCN(CCO)CCO)c3c(=O)c2c1` [Example 19, 1-[[2-Bis(2-hydroxyethyl)amino]ethyl]amino]-7-ethoxy-4-nitro-9(10H)-acridinone, methanesulfonate 0.8 hydrate], the MIC in the assay with Streptococcus pneumoniae was above 1000 µg/mL; in the assay on Branhamella catarrhalis, 111 µg/mL; in assay [2], above 1000 µg/mL; in the assay with Escherichia coli, above 1000 µg/mL; in the assay on Bacillus cereus, above 1000 µg/mL. Moreover, the IC50 amounted to 1500 nM in assay [1] and 1010 nM in the assay with HCT-8 cells. Also, the response vs control in vivo at 100 mg/kg in assay [3] is 130%. The response vs control in vivo at 200 mg/kg in assay [3] was 147%.

As for `CCN(CC)CCNc1ccc([N+](=O)[O-])c2[nH]c3ccc(N(C)C)cc3c(=O)c12.CS(=O)(=O)O` [Example 7, 1-[[2-(Diethylamino)ethyl]amino]-7-(dimethylamino)-4-nitro-9(10H)-acridinone, methanesulfonate (1:1)], the MIC in the assay on Streptococcus pneumoniae is 37 µg/mL; in the assay with Branhamella catarrhalis, above 1000 µg/mL; in assay [2] it was 111 µg/mL; in the assay on Escherichia coli, above 1000 µg/mL; in the assay on Bacillus cereus, above 1000 µg/mL. Also, the IC50 in assay [1] turned out to be 1300 nM; in the assay on HCT-8 cells, 560 nM. The response vs control in vivo at 50 mg/kg in assay [3] came out at 33%. Moreover, the response vs control in vivo at 100 mg/kg in assay [3] was found to be 169%.

In the case of `COc1ccc2c(c1)c(=O)c1c(NCCN(C)C)ccc([N+](=O)[O-])c1n2C` [Example 33], inhibition in assay [1] was half-maximal at 1800 nM (IC50). For the same compound, in the assay with HCT-8 cells, the midpoint of inhibition, the IC50, lay at 2270 nM. Besides, in assay [3], the response vs control in vivo at 100 mg/kg came out at 137% and the response vs control in vivo at 200 mg/kg stood at 144%.

For the compound `COc1ccc2c(c1)c(=O)c1c(NCCCN(C)C)ccc([N+](=O)[O-])c1n2C.CS(=O)(=O)O` [Example 34, 1-[[3-(Dimethylamino)propyl]amino]-7-methoxy-10-methyl-4-nitro-9(10H)-acridinone, methanesulfonate (1:1)], the MIC (in the assay on Streptococcus pneumoniae; in the assay on Branhamella catarrhalis; in assay [2]; with Escherichia coli; in the assay with Bacillus cereus) was 12.3 µg/mL throughout. For the same compound, the 50% inhibitory concentration (IC50) in assay [1] is 780 nM; in the assay on HCT-8 cells, 710 nM. The response vs control in vivo at 50 mg/kg in assay [3] was determined as 123%. In assay [3], the response vs control in vivo at 100 mg/kg is 136%.

Turning to `CCCOc1ccc2[nH]c3c([N+](=O)[O-])ccc(NCCN(CC)CC)c3c(=O)c2c1.CS(=O)(=O)O` [Example 5, 1-[[2-(Diethylamino)ethyl]amino]-4-nitro-7-propoxy-9(10H)-acridinone, methanesulfonate], the MIC in the assay with Streptococcus pneumoniae was found to be 1000 µg/mL. Further, the MIC in the assay with Branhamella catarrhalis was above 1000 µg/mL. The MIC in assay [2] was determined as 0.46 µg/mL. Further, in the assay with Escherichia coli, the MIC was above 1000 µg/mL. This compound also showed an IC50 with HCT-8 cells of 1950 nM. Besides, the MIC in the assay with Bacillus cereus was above 1000 µg/mL. In assay [3], the response vs control in vivo at 12.5 mg/kg was found to be 122%, the response vs control in vivo at 25 mg/kg was determined as 136%, the response vs control in vivo at 50 mg/kg is 146% and the response vs control in vivo at 100 mg/kg stood at 164%. Further, the response vs control in vivo at 200 mg/kg in assay [3] is 186%.
